Reference: ChEMBL document CHEMBL1147119 (2007)
≈ marks a conversion by molar mass, not a printed value. Calls of active or inactive are those of the source. No cut-off for these calls is given here.

How the values were obtained:
[1] = AUC (0-6h) in BALB/c mouse at 100 mg/kg, ip; assay type: ADME, organism-based; details: plasma
[2] = Cmax in BALB/c mouse at 25 mg/kg, ip; assay type: ADME, organism-based; details: in vivo
[3] = AUC (0-6h) in BALB/c mouse at 50 mg/kg, ip; assay type: ADME, organism-based; details: plasma
[4] = system: Mus musculus; experiment: Survival of Bacillus anthracis Ames infected BALB/c mouse at 30 mg/kg, ip every 12 hrs for 14 days administered 36 hrs after infection; assay type: functional
[5] = system: Mus musculus; experiment: Survival in BALB/c mouse infected with Bacillus anthracis Ames at 30 mg/kg, ip every 12 hrs for 14 days; assay type: functional, organism-based; design: dose 30 mg/kg
[6] = Trough level in BALB/c mouse at 100 mg/kg, ip after 6 hrs; assay type: ADME, organism-based; details: in vivo
[7] = Cmax in BALB/c mouse at 100 mg/kg, ip; assay type: ADME, organism-based; details: in vivo
[8] = Trough level in BALB/c mouse at 25 mg/kg, ip after 6 hrs; assay type: ADME, organism-based; details: in vivo
[9] = Cmax in BALB/c mouse at 50 mg/kg, ip; assay type: ADME, organism-based; details: in vivo
[10] = system: Mus musculus; experiment: Survival of Bacillus anthracis Ames infected BALB/c mouse at 30 mg/kg, ip every 12 hrs for 14 days administered 48 hrs after infection; assay type: functional
[11] = system: Bacillus anthracis; experiment: Antimicrobial activity against Bacillus anthracis Ames; assay type: functional
[12] = AUC (0-6h) in BALB/c mouse at 25 mg/kg, ip; assay type: ADME, organism-based; details: plasma
[13] = Trough level in BALB/c mouse at 50 mg/kg, ip after 6 hrs; assay type: ADME, organism-based; details: in vivo
[14] = system: Mus musculus; experiment: Survival in BALB/c mouse infected with Bacillus anthracis Ames at 40 mg/kg every 6 hrs for 14 days; assay type: functional, organism-based; design: dose 40 mg/kg

Row | Structure (SMILES) | AUC(0-t) at 6 h [1] [ng·h/mL] | Cmax [2] [ng/mL] | AUC(0-t) at 6 h [3] [ng·h/mL] | survival at 30 mg/kg [4] [%] | Activity [5] | concentration at 6 h [6] [ng/mL] | Cmax [7] [ng/mL] | concentration at 6 h [8] [ng/mL] | Cmax [9] [ng/mL] | survival at 30 mg/kg [10] [%] | MIC [11] [µg/mL] | AUC(0-t) at 6 h [12] [ng·h/mL] | concentration at 6 h [13] [ng/mL] | Activity [14]
1 | O=C(O)c1cn(C2CC2)c2cc(N3CCNCC3)c(F)cc2c1=O [CIPROFLOXACIN] | 37700 | 6600 | 14100 | 80 | Active | 1670 | 20000 | 1000 | 10700 | 80 | 0.25 (≈ 0.754 µM) | 6600 | 1830 | –
2 | C[C@H]1c2cccc(O)c2C(=O)C2=C(O)[C@]3(O)C(=O)C(C(N)=O)=C(O)[C@@H](N(C)C)[C@@H]3[C@@H](O)[C@@H]21.O [DOXYCYCLINE] | 57200 | 4000 | 23400 | – | – | 6000 | 12000 | 1330 | 6700 | – | 0.03 | 13700 | 1670 | Active
